The text below walks through data of publication PMC4955146, “Virtual screening and experimental validation of novel histone deacetylase inhibitors” (BMC Pharmacology & Toxicology, 2016).

The assay has as its system HDACs in HeLa nuclear extracts. Description: HDAC inhibitory activity assay (fluorometric HDAC inhibitor drug screening kit). It is filed as biochemical. As to conditions: percentage of the positive control, inhibitor control at 20 μM.

Experimental: The HDAC inhibitor drug screening kit (k340-100, BioVision, CA, USA) was used to measure HDAC inhibitory activities of the candidate compounds according to the manufacturer’s instructions. The candidate compounds, assay buffer, and HDAC fluorometric substrate, which comprises an acetylated lysine side chain, were added to HeLa nuclear extracts in a 96-well plate and incubated at 37 °C for 30 min. The reaction was stopped by adding lysine developer, and the mixture was incubated for another 30 min at 37 °C. An additional positive control included incubation with double-distilled water, and the inhibitor control consisted of incubation with Trichostatin A (TSA) at 20 μM. HDAC activities were quantified by a fluorescence plate reader (POLARstar OPTIMA, BMG, BRD) with excitation at 370 nm and emission at 450 nm.

With Trichostatin A [TSA], the relative enzymatic activity came out at 12%.
